This series in a line: xn = mol fraction of the nth substance listed. To be noted: 298.15 K, Ring tensiometer.

Numbers after ± are expanded uncertainties.

On to `CCCCOP(=O)([O-])OCCCC.CCCCn1cc[n+](C)c1` [1-butyl-3-methylimidazolium dibutyl phosphate] + CCO, for which the surface tension liquid-gas – broadly, the work needed to enlarge the surface of a liquid by unit area – came to 22.5 ± 0.3 mN/m (x1 = 0.1); 23.5 ± 0.4 mN/m (x1 = 0.2); 24.5 ± 0.4 mN/m (x1 = 0.3); 25.9 ± 0.4 mN/m (x1 = 0.4); 26.6 ± 0.4 mN/m (x1 = 0.5); 27.3 ± 0.4 mN/m (x1 = 0.6). The surface tension liquid-gas (x1 = 0.7) was found to be 27.8 ± 0.4 mN/m, the surface tension liquid-gas (x1 = 0.8) is recorded as 28.3 ± 0.4 mN/m, the surface tension liquid-gas (x1 = 0.9) was 28.8 ± 0.4 mN/m and the surface tension liquid-gas (x1 = 1) worked out at 29.4 ± 0.4 mN/m.

`CCCCOP(=O)([O-])OCCCC.CCCCn1cc[n+](C)c1` [1-butyl-3-methylimidazolium dibutyl phosphate] + CO: the surface tension liquid-gas runs as follows: (x1 = 0.1) 26.4 ± 0.4 mN/m; (x1 = 0.2) 27.5 ± 0.4 mN/m; (x1 = 0.3) 28.1 ± 0.4 mN/m; (x1 = 0.4) 28.5 ± 0.4 mN/m; (x1 = 0.5) 28.8 ± 0.4 mN/m; (x1 = 0.6) 28.9 ± 0.4 mN/m. The surface tension liquid-gas runs as follows: (x1 = 0.7) 29.1 ± 0.4 mN/m; (x1 = 0.8) 29.4 ± 0.4 mN/m; (x1 = 0.9) 29.5 ± 0.4 mN/m; (x1 = 1) 29.4 ± 0.4 mN/m.

For `CCCCOP(=O)([O-])OCCCC.CCCCn1cc[n+](C)c1` [1-butyl-3-methylimidazolium dibutyl phosphate] + O, the surface tension liquid-gas (x1 = 0.1) was determined as 28.2 ± 0.6 mN/m; the surface tension liquid-gas (x1 = 0.2) was 28.9 ± 0.4 mN/m; the surface tension liquid-gas (x1 = 0.3) is 29 ± 0.4 mN/m; the surface tension liquid-gas (x1 = 0.4) is given as 29.1 ± 0.4 mN/m; the surface tension liquid-gas (x1 = 0.5) came to 29.2 ± 0.4 mN/m; the surface tension liquid-gas (x1 = 0.6) is listed as 29.3 ± 0.4 mN/m. Also, the surface tension liquid-gas (x1 = 0.7) is given as 29.3 ± 0.4 mN/m, the surface tension liquid-gas (x1 = 0.8) is on record as 29.4 ± 0.4 mN/m, the surface tension liquid-gas (x1 = 0.9) is recorded as 29.5 ± 0.4 mN/m and the surface tension liquid-gas (x1 = 1) is listed as 29.4 ± 0.4 mN/m.

Turning to `CCOP(=O)([O-])OCC.CCn1cc[n+](C)c1` [1-ethyl-3-methylimidazolium diethyl phosphate] + CCO, the surface tension liquid-gas (x1 = 0.1) stood at 22.6 ± 0.3 mN/m; the surface tension liquid-gas (x1 = 0.2) is 23.6 ± 0.4 mN/m; the surface tension liquid-gas (x1 = 0.3) stood at 25 ± 0.4 mN/m; the surface tension liquid-gas (x1 = 0.4) worked out at 26.6 ± 0.4 mN/m; the surface tension liquid-gas (x1 = 0.5) came to 28.2 ± 0.4 mN/m; the surface tension liquid-gas (x1 = 0.6) was determined as 30.1 ± 0.4 mN/m. In addition, the surface tension liquid-gas reads like this: (x1 = 0.7) 31.6 ± 0.5 mN/m; (x1 = 0.8) 33.2 ± 0.5 mN/m; (x1 = 0.9) 34.8 ± 0.5 mN/m; (x1 = 1) 37.1 ± 0.5 mN/m.

Turning to `CCOP(=O)([O-])OCC.CCn1cc[n+](C)c1` [1-ethyl-3-methylimidazolium diethyl phosphate] + CO, the surface tension liquid-gas is, setting by setting: (x1 = 0.1) 26.4 ± 0.4 mN/m; (x1 = 0.2) 28.9 ± 0.4 mN/m; (x1 = 0.3) 30.4 ± 0.4 mN/m; (x1 = 0.4) 31.9 ± 0.5 mN/m; (x1 = 0.5) 33.5 ± 0.5 mN/m; (x1 = 0.6) 34.7 ± 0.5 mN/m. The surface tension liquid-gas runs as follows: (x1 = 0.7) 35.3 ± 0.5 mN/m; (x1 = 0.8) 37.2 ± 0.5 mN/m; (x1 = 0.9) 37.3 ± 0.5 mN/m; (x1 = 1) 37.1 ± 0.5 mN/m.

Take `CCOP(=O)([O-])OCC.CCn1cc[n+](C)c1` [1-ethyl-3-methylimidazolium diethyl phosphate] + O: the surface tension liquid-gas runs as follows: (x1 = 0.02) 49.7 ± 1.4 mN/m; (x1 = 0.04) 46.5 ± 0.6 mN/m; (x1 = 0.08) 44.2 ± 0.6 mN/m; (x1 = 0.1) 42.6 ± 0.6 mN/m; (x1 = 0.12) 41.4 ± 0.6 mN/m; (x1 = 0.14) 40.7 ± 0.6 mN/m. The surface tension liquid-gas (x1 = 0.2) turned out to be 38.9 ± 0.5 mN/m; the surface tension liquid-gas (x1 = 0.3) was 38 ± 0.5 mN/m; the surface tension liquid-gas (x1 = 0.4) is recorded as 37.8 ± 0.5 mN/m; the surface tension liquid-gas (x1 = 0.5) came out at 37.5 ± 0.5 mN/m; the surface tension liquid-gas (x1 = 0.6) was 37.4 ± 0.5 mN/m; the surface tension liquid-gas (x1 = 0.7) is listed as 37.3 ± 0.5 mN/m. The surface tension liquid-gas (x1 = 0.8) was found to be 37.2 ± 0.5 mN/m, the surface tension liquid-gas (x1 = 0.9) was 37.3 ± 0.5 mN/m and the surface tension liquid-gas (x1 = 1) is reported as 37.1 ± 0.5 mN/m.

As to `CCn1cc[n+](C)c1.COP(=O)([O-])OC` [1-ethyl-3-methylimidazolium dimethylphosphate] + CCO, the surface tension liquid-gas reads like this: (x1 = 0.1) 22.9 ± 0.4 mN/m; (x1 = 0.2) 24 ± 0.4 mN/m; (x1 = 0.3) 25.5 ± 0.4 mN/m; (x1 = 0.4) 27.5 ± 0.4 mN/m; (x1 = 0.5) 29.5 ± 0.4 mN/m; (x1 = 0.6) 31.7 ± 0.5 mN/m. Moreover, the surface tension liquid-gas runs as follows: (x1 = 0.7) 34 ± 0.5 mN/m; (x1 = 0.8) 36.5 ± 0.5 mN/m; (x1 = 0.9) 39.3 ± 0.6 mN/m; (x1 = 1) 44.3 ± 0.6 mN/m.

For `CCn1cc[n+](C)c1.COP(=O)([O-])OC` [1-ethyl-3-methylimidazolium dimethylphosphate] + CO, the surface tension liquid-gas is listed as 26.7 ± 0.4 mN/m (x1 = 0.1); 29.5 ± 0.4 mN/m (x1 = 0.2); 31.8 ± 0.5 mN/m (x1 = 0.3); 33.7 ± 0.5 mN/m (x1 = 0.4); 35.6 ± 0.5 mN/m (x1 = 0.5); 37 ± 0.5 mN/m (x1 = 0.6). Further, the surface tension liquid-gas is reported as 38.9 ± 0.6 mN/m (x1 = 0.7), 40.6 ± 0.6 mN/m (x1 = 0.8), 42.4 ± 0.6 mN/m (x1 = 0.9) and 44.3 ± 0.6 mN/m (x1 = 1).

On to `CCn1cc[n+](C)c1.COP(=O)([O-])OC` [1-ethyl-3-methylimidazolium dimethylphosphate] + O, for which the surface tension liquid-gas by setting is: (x1 = 0.1) 48.9 ± 0.69 mN/m; (x1 = 0.2) 47 ± 0.63 mN/m; (x1 = 0.3) 46.4 ± 0.62 mN/m; (x1 = 0.4) 46.2 ± 0.62 mN/m; (x1 = 0.5) 45.1 ± 0.61 mN/m; (x1 = 0.6) 44.2 ± 0.6 mN/m. The surface tension liquid-gas amounted to 44.1 ± 0.61 mN/m (x1 = 0.7), 44.5 ± 0.62 mN/m (x1 = 0.8), 44.4 ± 0.62 mN/m (x1 = 0.9) and 44.3 ± 0.62 mN/m (x1 = 1).

On to `CCO` [ethanol] + CCCCOP(=O)([O-])OCCCC.CCCCn1cc[n+](C)c1, for which the surface tension liquid-gas (x2 = 0) turned out to be 21.9 ± 0.3 mN/m.

For `CCO` [ethanol] + CCCCn1cc[n+](C)c1.COP(=O)([O-])OC, the surface tension liquid-gas (x2 = 0) worked out at 21.9 ± 0.3 mN/m.

As for `CCO` [ethanol] + CCCCn1cc[n+](CC)c1.CCOP(=O)([O-])OCC, the surface tension liquid-gas (x2 = 0) is given as 21.9 ± 0.3 mN/m.

With `CCO` [ethanol] + CCOP(=O)([O-])OCC.CCn1cc[n+](C)c1, the surface tension liquid-gas (x2 = 0) came out at 21.9 ± 0.3 mN/m.

Consider `CCO` [ethanol] + CCOP(=O)([O-])OCC.CCn1cc[n+](CC)c1, for which, under “x2 = 0”, the surface tension liquid-gas is recorded as 21.9 ± 0.3 mN/m.

In the case of `CCO` [ethanol] + CCn1cc[n+](C)c1.COP(=O)([O-])OC, the surface tension liquid-gas (x2 = 0) is 21.9 ± 0.3 mN/m.

In the case of `CCO` [ethanol] + COP(=O)([O-])OC.Cn1cc[n+](C)c1, the surface tension liquid-gas (x2 = 0) was 21.9 ± 0.3 mN/m.

For the compound `CO` [methanol] + CCCCOP(=O)([O-])OCCCC.CCCCn1cc[n+](C)c1, the surface tension liquid-gas (x2 = 0) amounted to 22.4 ± 0.3 mN/m.

Take `CO` [methanol] + CCCCn1cc[n+](C)c1.COP(=O)([O-])OC: under “x2 = 0”, the surface tension liquid-gas is 22.4 ± 0.3 mN/m.

Turning to `CO` [methanol] + CCCCn1cc[n+](CC)c1.CCOP(=O)([O-])OCC, the surface tension liquid-gas (x2 = 0) worked out at 22.4 ± 0.3 mN/m.

Regarding `CO` [methanol] + CCOP(=O)([O-])OCC.CCn1cc[n+](C)c1, the surface tension liquid-gas (x2 = 0) is given as 22.4 ± 0.3 mN/m.

Take `CO` [methanol] + CCOP(=O)([O-])OCC.CCn1cc[n+](CC)c1: the surface tension liquid-gas (x2 = 0) worked out at 22.4 ± 0.3 mN/m.

On to `CO` [methanol] + CCn1cc[n+](C)c1.COP(=O)([O-])OC, for which the surface tension liquid-gas (x2 = 0) is 22.4 ± 0.3 mN/m.

As for `CO` [methanol] + COP(=O)([O-])OC.Cn1cc[n+](C)c1, the surface tension liquid-gas (x2 = 0) is 22.4 ± 0.3 mN/m.

For `O` [water] + CCCCOP(=O)([O-])OCCCC.CCCCn1cc[n+](C)c1, the surface tension liquid-gas (x2 = 0) is recorded as 71.9 ± 0.9 mN/m.

As for `O` [water] + CCCCn1cc[n+](C)c1.COP(=O)([O-])OC, the surface tension liquid-gas (x2 = 0) came out at 71.9 ± 0.9 mN/m.

With `O` [water] + CCCCn1cc[n+](CC)c1.CCOP(=O)([O-])OCC, the surface tension liquid-gas (x2 = 0) was determined as 71.9 ± 0.9 mN/m.

For `O` [water] + CCOP(=O)([O-])OCC.CCn1cc[n+](C)c1, for the setting “x2 = 0”, the surface tension liquid-gas was 71.9 ± 0.9 mN/m.

For the compound `O` [water] + CCOP(=O)([O-])OCC.CCn1cc[n+](CC)c1, the surface tension liquid-gas (x2 = 0) turned out to be 71.9 ± 0.9 mN/m.

Take `O` [water] + CCn1cc[n+](C)c1.COP(=O)([O-])OC: the surface tension liquid-gas (x2 = 0) turned out to be 71.9 ± 0.91 mN/m.

As for `O` [water] + COP(=O)([O-])OC.Cn1cc[n+](C)c1, the surface tension liquid-gas (x2 = 0) was 71.9 ± 0.9 mN/m.

For the origin of these results see the NIST ThermoML archive (doi:10.1021/je400004j).
